This note sets out measurements from patent US20170095502A1, “Antimicrobial Metal-Binding Polymers” (priority 2015, published 2017).

The test system of one assay is S. aureus BAA-44. Briefly: MIC alone or in combination with tetracycline. The settings on record: for MIC: Staphylococcus aureus, BAA44.
The subject of assay [1] is vancomycin-resistant Enterococcus faecalis. The experiment in a line: checkerboard assay, MIC. The following applies: VRE.
The subject of assay [2] is methicillin-resistant Staphylococcus aureus. Briefly: checkerboard assay, MIC. The following applies: MRSA.
For assay [3], the system named is Vancomycin-resistant Staphylococcus aureus (VRSA). Briefly: inhibitory concentrations against drug-resistant bacteria (potentiation of vancomycin). The following applies: at 16 ug/ml vancomycin.
Assay [4] relates to Francisella tularensis (rabbit fever). It counts as cell-based.
Assay [5] has as its system Burkholderia pseudomallei (melioidosis). Type of assay: cell-based.
Assay [6] relates to Bacillus anthracis (anthrax). It counts as cell-based.
The test system of another assay is Candida albicans. The experiment in a line: inhibitory concentrations in hospital-acquired clinical wound isolates.
Assay [7] deals with Methicillin-resistant Staphylococcus aureus (MRSA). The experiment in a line: inhibitory concentrations against drug-resistant bacteria (potentiation of methicillin). The following applies: at 4 ug/ml methicillin.
Another assay relates to Yersinia pestis (plague). It counts as cell-based.
Another assay concerns Pseudomonas aeruginosa. Briefly: inhibitory concentrations in hospital-acquired clinical wound isolates.
The next assay concerns Acinetobacter baumannii. The description is as above.
The subject of another assay is Staphylococcus aureus. The assay is described as above.
In assay [8] the test system is Vancomycin-resistant Enterococcus faecium (VRE). The experiment in a line: inhibitory concentrations against drug-resistant bacteria (potentiation of vancomycin). The settings on record: at 16 μg/ml vancomycin.
For another assay, the system named is Enterococcus faecium. Briefly: inhibitory concentrations in hospital-acquired clinical wound isolates.

Consider `CN(C)[C@@H]1C(O)=C(C(N)=O)C(=O)[C@@]2(O)C(O)=C3C(=O)c4c(O)cccc4[C@@](C)(O)[C@H]3C[C@@H]12` [TET, tetracycline, reference compound], for which the MIC (usually the lowest concentration that inhibits growth of the organism) with S. aureus BAA-44 worked out at 32 µg/mL.

As to `COc1ccc2cc3[n+](cc2c1OC)CCc1cc2c(cc1-3)OCO2` [Berberine, berberine, reference compound], the MIC in assay [1] and in assay [2] was 500 µg/mL each time.

Take `S=C(S)N1CCCC1` [PDTC, pyrrolidine dithiocarbamate]: the Inhibitory concentration in assay [3] (clinical isolate VRS 1) stood at 13 µg/mL; in assay [3] (clinical isolate VRS 9) it was 13 µg/mL; in [3] (clinical isolate VRS 116), 13 µg/mL; with Candida albicans (clinical isolate Y-236), 12.5 µg/mL; in the assay on Candida albicans (clinical isolate Y-477), 12.5 µg/mL; with Candida albicans (clinical isolate Y-6359), 12.5 µg/mL. The Inhibitory concentration with Candida albicans (clinical isolate Y-12983) was found to be 12.5 µg/mL; in the assay with Candida albicans (clinical isolate Y-27022), 6.25 µg/mL; in [7] (clinical isolate 6006), 25 µg/mL; in [7] (clinical isolate 6051), 13 µg/mL; in assay [7] (clinical isolate 6544), 13 µg/mL; in assay [7] (clinical isolate 6605), 13 µg/mL. In addition, the Inhibitory concentration in assay [7] (clinical isolate 6607) came out at 13 µg/mL; in the assay with Pseudomonas aeruginosa (clinical isolate 5983), 100 µg/mL; in the assay on Pseudomonas aeruginosa (clinical isolate 6162), 100 µg/mL; in the assay on Pseudomonas aeruginosa (clinical isolate 6186), 100 µg/mL; in the assay on Pseudomonas aeruginosa (clinical isolate 6295), 100 µg/mL; in the assay with Pseudomonas aeruginosa (clinical isolate 6311), 100 µg/mL. Besides, the Inhibitory concentration with Acinetobacter baumannii (clinical isolate 6043) was 100 µg/mL; in the assay with Acinetobacter baumannii (clinical isolate 6063), 100 µg/mL; in the assay on Acinetobacter baumannii (clinical isolate 6175), 100 µg/mL; in the assay on Acinetobacter baumannii (clinical isolate 6272), 100 µg/mL; in the assay with Acinetobacter baumannii (clinical isolate 6838) it was 100 µg/mL; in the assay with Staphylococcus aureus (clinical isolate 6061) it was 25 µg/mL. The Inhibitory concentration in the assay with Staphylococcus aureus (clinical isolate 6108) came out at 12.5 µg/mL; in the assay on Staphylococcus aureus (clinical isolate B-313), 25 µg/mL; in the assay on Staphylococcus aureus (clinical isolate B-767), 50 µg/mL; with Staphylococcus aureus (clinical isolate B-14358) it was 50 µg/mL; in [8] (clinical isolate 6098), 50 µg/mL; in assay [8] (clinical isolate 6185), 50 µg/mL. Moreover, the Inhibitory concentration (in assay [8] (clinical isolate 6591); with Enterococcus faecium (clinical isolate 6080); with Enterococcus faecium (clinical isolate 6246); in the assay with Enterococcus faecium (clinical isolate 6831)) was 50 µg/mL in each case. The activity against biothreats result (in assay [4]; in [5]; in [6]; in the assay with Yersinia pestis (plague)) was “active” throughout. Further, the values for the MIC (in assay [1]; in assay [2]; in the assay on S. aureus BAA-44) were 62.5 µg/mL, 62.5 µg/mL and 9 µg/mL, respectively. The “effect of PDTC and tetracycline (FIG. 1)” value with S. aureus BAA-44 (combination with tetracycline) is “synergistic effect”.
